Data set [1] can be described thus: Chemical stability (RP-HPLC normalized purity after incubation at 40° C.). Type of data set: physicochemical. The note with it: 14-day incubation, 0.2 mg/ml, normalized purity (area-%); for pH 6 normalized stability: pH 6, 40° C.; for pH 7 normalized stability: pH 7, 40° C. In short, it runs like this: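 Peptide at 0.2 mg/ml final in water adjusted to pH 6, 7, 7.5 or 9, incubated at 40° C for 14 days. Purity measured as main-peak area-% by C18 RP-HPLC (acetonitrile/TFA/water gradient, UV 220 nm) and normalized to T=0 set at 100 for each pH.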

In data set [2] the test system is Normal chow-fed C57BL/6J male mice. Briefly: Effect on fasting glucose and intestinal weight in normal mice. Type of data set: in vivo. The note with it: for Small intestinal wet weight: 100 nmol/kg s.c. once daily for 4 days, sacrificed 24 hours after final dosing; for Fasting blood glucose: 100 nmol/kg s.c., day 0 after a single injection, fasted mice. As to the method: Normal chow-fed C57BL/6J male mice were used. The mice were kept in standard housing conditions, light-, temperature-, and humidity-controlled room (12:12 h light-dark cycle, with lights on at 06.00-18.00 h; 20-22° C.; 50-80% relative humidity). Each dosing group consisted of 6 animals. Mice were dosed once daily with 100 nmol/kg with the test compounds or vehicle for 4 days via subcutaneous administration.
On day 0 mice were fasted and blood glucose levels measured after a single s.c. injection with peptides. Animals were sacrificed 24 hours after final dosing on day 3, and small intestinal wet weights were measured.

Data set [3] can be described thus: Solubility assessment (turbidity absorbance at 325 nm). Type of data set: physicochemical. In short, it runs like this:
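Peptide stock at 2 mg/ml in water at pH 2.5 diluted 1:1 into 100 mM acetate (pH 4.0, 5.0), histidine (pH 6.0, 7.0) or phosphate (pH 6.0, 7.0, 7.5) buffer. Absorbance at 280 and 325 nm read at ambient temperature (typically 25 °C), single samples (n=1).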

Read-outs that look alike come from different tables or passages of the source. Where a SMILES comes first, the peptide text is derived from it. A value given as a limit tells only on which side of the number the result lay.

With `CC[C@H](C)[C@H](NC(=O)[C@H](Cc1ccccc1)NC(=O)[C@H](CC(=O)O)NC(=O)[C@H](CCCNC(=N)N)NC(=O)[C@H](C)NC(=O)[C@H](C)NC(=O)[C@H](CCCCN)NC(=O)[C@H](CCCCNC(=O)CC[C@H](NC(=O)CCCCCCCCCCCCCCCCC(=O)O)C(=O)O)NC(=O)[C@H](CC(=O)O)NC(=O)[C@H](CC(C)C)NC(=O)[C@@H](NC(=O)[C@@H](NC(=O)[C@H](C)NC(=O)[C@H](CC(C)C)NC(=O)[C@H](CCC(=O)O)NC(=O)[C@H](CO)NC(=O)[C@@H](NC(=O)[C@H](Cc1ccccc1)NC(=O)[C@H](CO)NC(=O)CNC(=O)[C@H](CCC(=O)O)NC(=O)C(C)(C)NC(=O)[C@@H](N)Cc1c[nH]cn1)[C@@H](C)O)[C@@H](C)O)[C@@H](C)CC)C(=O)N[C@@H](C)C(=O)N[C@@H](Cc1c[nH]c2ccccc12)C(=O)N[C@@H](CC(C)C)C(=O)N[C@H](C(=O)N[C@@H](CCC(=O)O)C(=O)N[C@@H](Cc1c[nH]cn1)C(=O)N[C@@H](CCCCN)C(=O)N[C@H](C(=O)N[C@H](C(=O)N[C@@H](CC(=O)O)C(=O)O)[C@@H](C)O)[C@@H](C)CC)[C@@H](C)CC` [Compound 5] (HELM PEPTIDE1{H.[Aib].E.G.S.F.T.S.E.L.A.T.I.L.D.K.K.A.A.R.D.F.I.A.W.L.I.E.H.K.I.T.D}|PEPTIDE2{[O=C(O)CCCCCCCCCCCCCCCCC(=O)[*:2]].[gGlu]}$PEPTIDE1,PEPTIDE2,16:R3-2:R2$$$V2.0), in data set [1], the “pH 6 normalized stability” value is given as “A (>90% normalised stability)” and the “pH 7 normalized stability” value was “A (>90% normalised stability)”. Also, in data set [2], the “Small intestinal wet weight” value came out at 1.35 g and the Fasting blood glucose amounted to 4.60 mM.
By solubility is commonly meant how much of the substance goes into solution per volume. For the compound `CC[C@H](C)[C@H](NC(=O)[C@H](Cc1ccccc1)NC(=O)[C@H](CC(=O)O)NC(=O)[C@H](CCCNC(=N)N)NC(=O)[C@H](C)NC(=O)[C@H](C)NC(=O)[C@H](CCC(N)=O)NC(=O)[C@H](CCCCNC(=O)CC[C@H](NC(=O)CCCCCCCCCCCCCCCCC(=O)O)C(=O)O)NC(=O)[C@H](CC(=O)O)NC(=O)[C@H](CC(C)C)NC(=O)[C@@H](NC(=O)[C@@H](NC(=O)[C@H](C)NC(=O)[C@H](CC(C)C)NC(=O)[C@H](CCC(=O)O)NC(=O)[C@H](CO)NC(=O)[C@@H](NC(=O)[C@H](Cc1ccccc1)NC(=O)[C@H](CO)NC(=O)CNC(=O)[C@H](CCC(=O)O)NC(=O)C(C)(C)NC(=O)[C@@H](N)Cc1c[nH]cn1)[C@@H](C)O)[C@@H](C)O)[C@@H](C)CC)C(=O)N[C@@H](C)C(=O)N[C@@H](Cc1c[nH]c2ccccc12)C(=O)N[C@@H](CC(C)C)C(=O)N[C@H](C(=O)N[C@@H](CCC(N)=O)C(=O)N[C@@H](Cc1c[nH]cn1)C(=O)N[C@@H](CCCCN)C(=O)N[C@H](C(=O)N[C@H](C(=O)N[C@@H](CC(=O)O)C(=O)O)[C@@H](C)O)[C@@H](C)CC)[C@@H](C)CC` [Compound 18] (HELM PEPTIDE1{H.[Aib].E.G.S.F.T.S.E.L.A.T.I.L.D.K.Q.A.A.R.D.F.I.A.W.L.I.Q.H.K.I.T.D}|PEPTIDE2{[O=C(O)CCCCCCCCCCCCCCCCC(=O)[*:2]].[gGlu]}$PEPTIDE1,PEPTIDE2,16:R3-2:R2$$$V2.0), the solubility in data set [3] (100 mM acetate buffer pH 4.0, ambient temperature, read-out: Solubility Acetate buffer pH 4) was below 1000 µg/mL; in data set [3] (100 mM acetate buffer pH 5.0, ambient temperature, read-out: Solubility Acetate buffer pH 5), below 1000 µg/mL; in data set [3] (100 mM histidine buffer pH 6.0, ambient temperature, read-out: Solubility Histidine buffer pH 6) it was at least 1000 µg/mL; in data set [3] (100 mM histidine buffer pH 7.0, ambient temperature, read-out: Solubility Histidine buffer pH 7), at least 1000 µg/mL; in data set [3] (100 mM phosphate buffer pH 6.0, ambient temperature, read-out: Solubility Phosphate buffer pH 6) it was at least 1000 µg/mL; in data set [3] (100 mM phosphate buffer pH 7.0, ambient temperature, read-out: Solubility Phosphate buffer pH 7), at least 1000 µg/mL. Also, the solubility in data set [3] (100 mM phosphate buffer pH 7.5, ambient temperature, read-out: Solubility Phosphate buffer pH 7.5) was at least 1000 µg/mL. Also, the “pH 6 normalized stability” value in data set [1] was “A (>90% normalised stability)”. In data set [1], the “pH 7 normalized stability” value was “A (>90% normalised stability)”. For the same compound, the “Small intestinal wet weight” value in data set [2] is on record as 1.37 g. In data set [2], this compound displayed a Fasting blood glucose of 5.26 mM.
Turning to `CC[C@H](C)[C@H](NC(=O)[C@H](Cc1ccccc1)NC(=O)[C@H](CC(=O)O)NC(=O)[C@H](CCCNC(=N)N)NC(=O)[C@H](C)NC(=O)[C@H](C)NC(=O)[C@H](CCC(N)=O)NC(=O)[C@H](CCCCNC(=O)COCCOCCNC(=O)[C@H](CCCCN)NC(=O)[C@H](CCC(=O)O)NC(=O)[C@H](CCCCN)NC(=O)CC[C@H](NC(=O)CCCCCCCCCCCCCCCCCCC(=O)O)C(=O)O)NC(=O)[C@H](CC(=O)O)NC(=O)[C@H](CC(C)C)NC(=O)[C@@H](NC(=O)[C@@H](NC(=O)[C@H](C)NC(=O)[C@H](CC(C)C)NC(=O)[C@H](CCC(=O)O)NC(=O)[C@H](CO)NC(=O)[C@H](CO)NC(=O)[C@H](Cc1ccccc1)NC(=O)[C@@H](NC(=O)CNC(=O)[C@H](CCC(=O)O)NC(=O)C(C)(C)NC(=O)[C@@H](N)Cc1c[nH]cn1)[C@@H](C)O)[C@@H](C)O)[C@@H](C)CC)C(=O)N[C@@H](C)C(=O)N[C@@H](Cc1c[nH]c2ccccc12)C(=O)N[C@@H](CC(C)C)C(=O)N[C@H](C(=O)N[C@@H](CCC(N)=O)C(=O)N[C@@H](Cc1c[nH]cn1)C(=O)N[C@@H](CCCCN)C(=O)N[C@H](C(=O)N[C@H](C(=O)N[C@@H](CC(=O)O)C(=O)O)[C@@H](C)O)[C@@H](C)CC)[C@@H](C)CC` [Compound 48] (HELM PEPTIDE1{H.[Aib].E.G.T.F.S.S.E.L.A.T.I.L.D.K.Q.A.A.R.D.F.I.A.W.L.I.Q.H.K.I.T.D}|PEPTIDE2{[O=C(O)CCCCCCCCCCCCCCCCCCC(=O)[*:2]].[gGlu].K.E.K.[O=C(COCCOCCN[*:1])[*:2]]}$PEPTIDE1,PEPTIDE2,16:R3-6:R2$$$V2.0), in data set [2], the “Small intestinal wet weight” value came out at 1.41 g and the Fasting blood glucose amounted to 5.08 mM.

The values are drawn from patent US11395847B2, “Acylated GLP-1/GLP-2 dual agonists” (Zealand Pharma A/S, priority 2016, dated 2022).
